Values of other authors as cited in US12708115B2, “Inground and above ground termite trailing and recruitment products and processes” (Florida Insect Control Group LLC, priority 2023, dated 2026).

Tested on: subterranean termites

## OCCOc1ccccc1 [2-phenoxyethanol]
field, untreated stations 0 of 20
  soil-treated detection stations hit by termites: 5 of 20
Soil treatment, Prescott thesis
  feeding on cellulose material surrounded by the treatment: feed more
